Data from patent publication US6737383B1, “Herbicidal oxadiazolidines” (priority 1999, dated 2004).

Assays:
cocklebur = experiment: Test B pre/postemergence cocklebur; assay type: in vivo, Xanthium strumarium
Procedure, shortened: (§1)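 Response is a visual 0-to-10 score relative to untreated plants, where 0 means no effect and 10 means complete control, taken twelve to sixteen days after application. Treatments went onto soil at planting and onto foliage of 1- to 4-leaf plants, using a surfactant-containing non-phytotoxic solvent.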

giant foxtail = experiment: Test B pre/postemergence giant foxtail; assay type: in vivo, Setaria faberii
Procedure, shortened: as §1

smallflower flatsedge = experiment: Test B flood test smallflower flatsedge; assay type: in vivo, Cyperus difformis
Procedure, shortened: (§2)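 Read-out is a visual response score from 0 (no effect) to 10 (complete control), assigned by comparison with untreated controls. Treatment was applied at the 2-leaf stage, and plants stayed in the greenhouse for twelve to sixteen days before scoring.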

duck salad = experiment: Test B flood test duck salad; assay type: in vivo, Heteranthera limosa
Procedure, shortened: as §2

soybean = experiment: Test B pre/postemergence soybean; assay type: in vivo, Glycine max
Procedure, shortened: as §1

morningglory = experiment: Test B pre/postemergence morningglory; assay type: in vivo, Ipomoea hederacea
Procedure, shortened: as §1

wild oat = experiment: Test B pre/postemergence wild oat; assay type: in vivo, Avena fatua
Procedure, shortened: as §1

surinam grass = experiment: Test B pre/postemergence surinam grass; assay type: in vivo, Brachiaria decumbens
Procedure, shortened: as §1

crabgrass = experiment: Test B pre/postemergence crabgrass; assay type: in vivo, Digitaria sanguinalis
Procedure, shortened: as §1

corn = experiment: Test B pre/postemergence corn; assay type: in vivo, Zea mays
Procedure, shortened: as §1

wheat = experiment: Test B pre/postemergence wheat; assay type: in vivo, Triticum aestivum
Procedure, shortened: as §1

bamyardgrass = experiment: Test B flood test barnyardgrass; assay type: in vivo, Echinochloa crus-galli
Procedure, shortened: as §2

rice = experiment: Test B flood test rice; assay type: in vivo, Oryza sativa
Procedure, shortened: as §2

pigweed = experiment: Test B pre/postemergence pigweed; assay type: in vivo, Amaranthus retroflexus
Procedure, shortened: as §1

sugar beet = experiment: Test B pre/postemergence sugar beet; assay type: in vivo, Beta vulgaris
Procedure, shortened: as §1

rape = experiment: Test B pre/postemergence rape; assay type: in vivo, Brassica napus
Procedure, shortened: as §1

purple nutsedge = experiment: Test B pre/postemergence purple nutsedge; assay type: in vivo, Cyperus rotundus
Procedure, shortened: as §1

bedstraw = experiment: Test B pre/postemergence bedstraw; assay type: in vivo, Galium aparine; conditions: Postemergence
Procedure, shortened: as §1

blackgrass = experiment: Test B pre/postemergence blackgrass; assay type: in vivo, Alopecurus myosuroides
Procedure, shortened: as §1

velvetleaf = experiment: Test B pre/postemergence velvetleaf; assay type: in vivo, Abutilon theophrasti
Procedure, shortened: as §1

[1] = Postemergence, Rate 62 g/ha, scale 0 to 10, 0 is no effect, 10 is complete control
[2] = Postemergence, Rate 125 g/ha, scale of 0 to 10 where 0 is no effect and 10 is complete control
[3] = Postemergence, Rate 250 g/ha, scale of 0 to 10, 0 is no effect, 10 is complete control
[4] = Postemergence, Rate 500 g/ha, scale of 0 to 10 where 0 is no effect and 10 is complete control
[5] = Preemergence, Rate 62 g/ha, scale 0 to 10 (0 no effect, 10 complete control)
[6] = Preemergence, Rate 125 g/ha, scale of 0 to 10 where 0 is no effect and 10 is complete control
[7] = Preemergence, Rate 500 g/ha, scale of 0 to 10 where 0 is no effect and 10 is complete control
[8] = Rate 62 g/ha, flood test species, Pre-emergence, visual evaluation after twelve to sixteen days
[9] = Rate 125 g/ha, under heading Pre-emergence, flood test species, visual evaluation after twelve to sixteen days
[10] = Rate 250 g/ha, Pre-emergence (flood test species), scale 0 to 10, 0 is no effect, 10 is complete control
[11] = Rate 500 g/ha, Pre-emergence section of Table B, 0 to 10 scale (0 no effect, 10 complete control)

CCC(C)n1c(=O)on(C(=O)N(c2ccc(F)cc2)C(C)C)c1=O (centres unmarked) [Compound 613]
Plant response rating, Cocklebur (cocklebur; [1]): 0
Plant response rating, Cocklebur (cocklebur; [2]): 2
Cocklebur plant response rating (cocklebur; [3]): 2
Plant response rating, Cocklebur (cocklebur; [4]): 2
Cocklebur plant response rating (cocklebur; [5]): 0
Cocklebur plant response rating (cocklebur; [6]): 0
Cocklebur plant response rating (0 to 10 scale) (cocklebur; Preemergence, Rate 250 g/ha): 2
Plant response rating, Cocklebur (cocklebur; [7]): 8
Plant response rating, Giant foxtail (giant foxtail; [1]): 5
Plant response rating, Giant foxtail (giant foxtail; [2]): 9
Giant foxtail plant response rating (giant foxtail; [3]): 9
Plant response rating, Giant foxtail (giant foxtail; [4]): 9
Giant foxtail plant response rating (giant foxtail; [5]): 10
Giant foxtail plant response rating (giant foxtail; [6]): 10
Plant response rating, Giant foxtail (giant foxtail; [7]): 10
Plant response rating, S. Flatsedge (0 to 10 scale, 0 is no effect, 10 is complete control) (smallflower flatsedge; [8]): 0
S. Flatsedge plant response rating (0 to 10 scale, 0 is no effect, 10 is complete control) (smallflower flatsedge; [9]): 0
S. Flatsedge plant response rating (smallflower flatsedge; [10]): 0
S. Flatsedge plant response rating (smallflower flatsedge; [11]): 0
Plant response rating, Ducksalad (0 to 10 scale, 0 is no effect, 10 is complete control) (duck salad; [8]): 0
Ducksalad plant response rating (0 to 10 scale, 0 is no effect, 10 is complete control) (duck salad; [9]): 0
Ducksalad plant response rating (duck salad; [10]): 0
Ducksalad plant response rating (duck salad; [11]): 0
Plant response rating, Soybean (soybean; [1]): 4
Plant response rating, Soybean (soybean; [2]): 5
Soybean plant response rating (soybean; [3]): 6
Plant response rating, Soybean (soybean; [4]): 8
Soybean plant response rating (soybean; [5]): 0
Soybean plant response rating (soybean; [6]): 0
Plant response rating, Soybean (soybean; [7]): 2
Plant response rating, Morningglory (morningglory; [1]): 7
Plant response rating, Morningglory (morningglory; [2]): 7
Morningglory plant response rating (morningglory; [3]): 8
Plant response rating, Morningglory (morningglory; [4]): 8
Morningglory plant response rating (morningglory; [5]): 0
Morningglory plant response rating (morningglory; [6]): 0
Plant response rating, Morningglory (morningglory; [7]): 10
Plant response rating, Wild oats (wild oat; [1]): 1
Plant response rating, Wild oats (wild oat; [2]): 7
Wild oats plant response rating (wild oat; [3]): 9
Plant response rating, Wild oats (wild oat; [4]): 9
Wild oats plant response rating (wild oat; [5]): 7
Wild oats plant response rating (wild oat; [6]): 9
Plant response rating, Wild oats (wild oat; [7]): 10
Plant response rating, B. signalgrass (surinam grass; [1]): 1
Plant response rating, B. signalgrass (surinam grass; [2]): 3
B. signalgrass plant response rating (surinam grass; [3]): 6
Plant response rating, B. signalgrass (surinam grass; [4]): 8
B. signalgrass plant response rating (surinam grass; [5]): 7
B. signalgrass plant response rating (surinam grass; [6]): 8
B. signalgrass plant response rating (0 to 10 scale, 0 is no effect, 10 is complete control) (surinam grass; Preemergence, Rate 250 g/ha): 9
B. signalgrass plant response rating (surinam grass; [7]): 9
Plant response rating, Crabgrass (crabgrass; [1]): 8
Plant response rating, Crabgrass (crabgrass; [2]): 9
Crabgrass plant response rating (crabgrass; [3]): 9
Plant response rating, Crabgrass (crabgrass; [4]): 9
Crabgrass plant response rating (crabgrass; [5]): 9
Crabgrass plant response rating (crabgrass; [6]): 10
Plant response rating, Crabgrass (crabgrass; [7]): 10
Plant response rating, Corn (corn; [1]): 0
Plant response rating, Corn (corn; [2]): 0
Corn plant response rating (corn; [3]): 0
Plant response rating, Corn (corn; [4]): 0
Corn plant response rating (corn; [5]): 2
Corn plant response rating (corn; [6]): 3
Corn plant response rating (0 to 10 scale) (corn; Preemergence, Rate 250 g/ha): 9
Plant response rating, Corn (corn; [7]): 9
Plant response rating, Wheat (wheat; [1]): 0
Plant response rating, Wheat (wheat; [2]): 0
Wheat plant response rating (wheat; [3]): 2
Plant response rating, Wheat (wheat; [4]): 6
Wheat plant response rating (wheat; [5]): 0
Wheat plant response rating (wheat; [6]): 3
Plant response rating, Wheat (wheat; [7]): 6
Plant response rating, Barnyardgrass (0 to 10 scale, 0 is no effect, 10 is complete control) (bamyardgrass; [8]): 0
Barnyardgrass plant response rating (0 to 10 scale, 0 is no effect, 10 is complete control) (bamyardgrass; [9]): 0
Barnyardgrass plant response rating (bamyardgrass; [10]): 0
Barnyardgrass plant response rating (bamyardgrass; [11]): 0
Plant response rating, Rice (0 to 10 scale, 0 is no effect, 10 is complete control) (rice; [8]): 0
Rice plant response rating (0 to 10 scale, 0 is no effect, 10 is complete control) (rice; [9]): 0
Rice plant response rating (rice; [10]): 0
Rice plant response rating (rice; [11]): 0
Plant response rating, Redroot pigweed (pigweed; [1]): 1
Plant response rating, Redroot pigweed (pigweed; [2]): 2
Redroot pigweed plant response rating (pigweed; [3]): 7
Plant response rating, Redroot pigweed (pigweed; [4]): 8
Redroot pigweed plant response rating (pigweed; [5]): 10
Redroot pigweed plant response rating (pigweed; [6]): 10
Plant response rating, Redroot pigweed (pigweed; [7]): 10
Plant response rating, Sugarbeets (sugar beet; [1]): 0
Plant response rating, Sugarbeets (sugar beet; [2]): 0
Sugarbeets plant response rating (sugar beet; [3]): 0
Plant response rating, Sugarbeets (sugar beet; [4]): 0
Sugarbeets plant response rating (sugar beet; [5]): 3
Sugarbeets plant response rating (sugar beet; [6]): 5
Plant response rating, Sugarbeets (sugar beet; [7]): 10
Plant response rating, Rape (rape; [1]): 0
Plant response rating, Rape (rape; [2]): 0
Rape plant response rating (rape; [3]): 3
Plant response rating, Rape (rape; [4]): 7
Rape plant response rating (rape; [5]): 7
Rape plant response rating (rape; [6]): 9
Plant response rating, Rape (rape; [7]): 10
Plant response rating, Nutsedge (purple nutsedge; [1]): 0
Plant response rating, Nutsedge (purple nutsedge; [2]): 2
Nutsedge plant response rating (purple nutsedge; [3]): 2
Plant response rating, Nutsedge (purple nutsedge; [4]): 4
Nutsedge plant response rating (purple nutsedge; [5]): 0
Nutsedge plant response rating (purple nutsedge; [6]): 0
Plant response rating, Nutsedge (purple nutsedge; [7]): 2
Plant response rating, Bedstraw (bedstraw; Rate 62 g/ha, scale 0 to 10, 0 is no effect, 10 is complete control): 8
Bedstraw plant response rating (bedstraw; Rate 250 g/ha, scale of 0 to 10, 0 is no effect, 10 is complete control): 8
Plant response rating, Bedstraw (bedstraw; Rate 500 g/ha, scale of 0 to 10 where 0 is no effect and 10 is complete control): 9
Plant response rating, Blackgrass (blackgrass; [1]): 8
Plant response rating, Blackgrass (blackgrass; [2]): 9
Blackgrass plant response rating (blackgrass; [3]): 9
Plant response rating, Blackgrass (blackgrass; [4]): 9
Blackgrass plant response rating (blackgrass; [5]): 8
Blackgrass plant response rating (blackgrass; [6]): 8
Blackgrass plant response rating (0 to 10 scale) (blackgrass; Preemergence, Rate 250 g/ha): 10
Blackgrass plant response rating (blackgrass; [7]): 10
Plant response rating, Velvetleaf (velvetleaf; [1]): 0
Plant response rating, Velvetleaf (velvetleaf; [2]): 4
Velvetleaf plant response rating (velvetleaf; [3]): 5
Plant response rating, Velvetleaf (velvetleaf; [4]): 8
Velvetleaf plant response rating (velvetleaf; [5]): 7
Velvetleaf plant response rating (velvetleaf; [6]): 7
Plant response rating, Velvetleaf (velvetleaf; [7]): 8
